From EPA's ToxValDB 9.5

How the values were obtained:
Rattus norvegicus [1] = conditions: short-term, duration: 28 days, oral, gavage, Sprague-Dawley
Rattus norvegicus [2] = test system: Rattus norvegicus
[3] = short-term, duration: 14 days, oral, gavage, M, Sprague-Dawley, Body Weight: Decreases in body weight at 3 and 5 mg/kg/day (18 and 39%)
[4] = short-term, duration: 14 days, oral, gavage, M, Sprague-Dawley, Immunotoxicological: Decreased relative spleen weight and increases in cytokine levels
[5] = short-term, duration: 14 days, oral, gavage, M, Sprague-Dawley, Other Noncancer (Glucose: Increased serum glucose levels (1.11-fold at 1 mg/kg/day and 1.16-fold at 5 mg/kg/day)
[6] = short-term, duration: 14 days, oral, gavage, M, Sprague-Dawley, Reproductive: 85.4% decrease in serum testosterone and […] increase in estradiol levels at 5 mg/kg/day / atrophy of seminiferous tubule …
[7] = short-term, duration: 14 days, oral, gavage, M, Sprague-Dawley, Reproductive: Large vacuoles between testicular Sertoli cells and spermatogonia

O=C(O)C(F)(F)C(F)(F)C(F)(F)C(F)(F)C(F)(F)C(F)(F)C(F)(F)C(F)(F)F [Perfluorononanoic acid]
2.5 mg/kg-day: LOEL (Rattus norvegicus [1]; M, Clinical chemistry_Testosterone) | LOEL (Rattus norvegicus [1]; M, Clinical chemistry_Thyroid stimulating hormone) | LOEL (Rattus norvegicus [1]; M, Clinical chemistry_Total triiodothyronine) | LOEL (Rattus norvegicus [1]; M, Hematology_Mean corpuscular hemoglobin concentration) | LOEL (Rattus norvegicus [1]; M, Hematology_Mean corpuscular volume) | LOEL (Rattus norvegicus [1]; M, Nonneoplastic effects_Bone marrow - Hypocellularity) | LOEL (Rattus norvegicus [1]; M, Nonneoplastic effects_Epididymis - Duct, exfoliated germ cell) | LOEL (Rattus norvegicus [1]; M, Nonneoplastic effects_Forestomach - Epithelium, hyperplasia) | LOEL (Rattus norvegicus [1]; M, Nonneoplastic effects_Forestomach - Inflammation, chronic active) | LOEL (Rattus norvegicus [1]; M, Nonneoplastic effects_Liver - Hepatocyte, Necrosis) | LOEL (Rattus norvegicus [1]; M, Nonneoplastic effects_Testes - Germinal epithelium, degeneration) | LOEL (Rattus norvegicus [1]; M, Nonneoplastic effects_Testes - Interstitial cell, atrophy) | LOEL (Rattus norvegicus [1]; M, Nonneoplastic effects_Testes - Seminiferous tubule, spermatid retention) | LOEL (Rattus norvegicus [1]; M, Nonneoplastic effects_Thymus - Atrophy) | LOEL (Rattus norvegicus [1]; M, Organ weights_R. adrenal gland - Relative) | LOEL (Rattus norvegicus [1]; M, Organ weights_R. kidney - Absolute) | LOEL (Rattus norvegicus [1]; M, Organ weights_R. testis - Absolute) | LOEL (Rattus norvegicus [1]; M, Organ weights_Thyroid gland - Absolute) | LOEL (Rattus norvegicus [1]; M, Organ weights_Thyroid gland - Relative)
590 mg/m3: LOAEL (Rattus norvegicus [2]; acute, duration: 4 hours, inhalation, nose only, M, CD, Body Weight: Reduced 18% 5 days after exposure + Respiratory: Lung noise / labored breathing during and after exposure)
3.12 mg/kg-day: LOEL (Rattus norvegicus [1]; F, Clinical chemistry_Alanine aminotransferase) | LOEL (Rattus norvegicus [1]; F, Clinical chemistry_Alkaline phosphatase) | LOEL (Rattus norvegicus [1]; F, Clinical chemistry_Free thyroxine) | LOEL (Rattus norvegicus [1]; F, Clinical chemistry_Total bile acids) | LOEL (Rattus norvegicus [1]; F, Clinical chemistry_Total thyroxine) | LOEL (Rattus norvegicus [1]; F, Organ weights_Spleen - Absolute)
1.56 mg/kg-day: LOEL (Rattus norvegicus [1]; F, Clinical chemistry_Albumin) | LOEL (Rattus norvegicus [1]; F, Clinical chemistry_Albumin/globulin ratio) | LOEL (Rattus norvegicus [1]; F, Clinical chemistry_Globulin) | LOEL (Rattus norvegicus [1]; F, Clinical chemistry_Sorbitol dehydrogenase) | LOEL (Rattus norvegicus [1]; F, Clinical chemistry_Testosterone) | LOEL (Rattus norvegicus [1]; F, Clinical chemistry_Total protein) | LOEL (Rattus norvegicus [1]; F, Gene expression_Acox1) | LOEL (Rattus norvegicus [1]; F, Gene expression_Cyp2b1) | LOEL (Rattus norvegicus [1]; F, Gene expression_Cyp2b2) | LOEL (Rattus norvegicus [1]; F, Gene expression_Cyp4a1) | LOEL (Rattus norvegicus [1]; F, Nonneoplastic effects_Liver - Hepatocyte, cytoplasmic alteration) | LOEL (Rattus norvegicus [1]; F, Organ weights_Liver - Absolute) | LOEL (Rattus norvegicus [1]; F, Organ weights_Liver - Relative) | LOEL (Rattus norvegicus [1]; F, Organ weights_R. kidney - Absolute) | LOEL (Rattus norvegicus [1]; F, Organ weights_R. kidney - Relative)
10 mg/kg-day: NOEL (Rattus norvegicus [1]; M, Clinical chemistry_Creatinine kinase) | NOEL (Rattus norvegicus [1]; M, Hematology_Erythrocytes) | NOEL (Rattus norvegicus [1]; M, Hematology_Hematocrit) | NOEL (Rattus norvegicus [1]; M, Hematology_Hemoglobin) | NOEL (Rattus norvegicus [1]; M, Hematology_Platelets) | NOEL (Rattus norvegicus [1]; M, Nonneoplastic effects_Kidney - Nephropathy, chronic progressive) | NOEL (Rattus norvegicus [1]; M, Nonneoplastic effects_Nose - Olfactory epithelium, degeneration) | NOEL (Rattus norvegicus [1]; M, Nonneoplastic effects_Nose - Olfactory epithelium, hyperplasia) | NOEL (Rattus norvegicus [1]; M, Nonneoplastic effects_Nose - Olfactory epithelium, inflammation, suppurative) | NOEL (Rattus norvegicus [1]; M, Nonneoplastic effects_Nose - Respiratory epithelium, hyperplasia) | NOEL (Rattus norvegicus [1]; M, Nonneoplastic effects_Nose - Respiratory epithelium, inflammation, chronic active) | NOEL (Rattus norvegicus [1]; M, Nonneoplastic effects_Spleen - Extramedullary hematopoiesis, increased) | NOEL (Rattus norvegicus [1]; M, Nonneoplastic effects_Thymus - Lymphocyte, apoptosis) | NOEL (Rattus norvegicus [1]; M, Nonneoplastic effects_Thyroid gland - Follicular cell hypertrophy)
0.625 mg/kg-day: LOEL (Rattus norvegicus [1]; M, Clinical chemistry_Albumin/globulin ratio) | LOEL (Rattus norvegicus [1]; M, Clinical chemistry_Cholesterol) | LOEL (Rattus norvegicus [1]; M, Clinical chemistry_Free thyroxine) | LOEL (Rattus norvegicus [1]; M, Clinical chemistry_Globulin) | LOEL (Rattus norvegicus [1]; M, Clinical chemistry_Total bile acids) | LOEL (Rattus norvegicus [1]; M, Clinical chemistry_Total protein) | LOEL (Rattus norvegicus [1]; M, Clinical chemistry_Total thyroxine) | LOEL (Rattus norvegicus [1]; M, Clinical chemistry_Triglycerides) | LOEL (Rattus norvegicus [1]; M, Gene expression_Acox1) | LOEL (Rattus norvegicus [1]; M, Gene expression_Acyl-CoA oxidase) | LOEL (Rattus norvegicus [1]; M, Gene expression_Cyp2b1) | LOEL (Rattus norvegicus [1]; M, Gene expression_Cyp2b2) | LOEL (Rattus norvegicus [1]; M, Gene expression_Cyp4a1) | LOEL (Rattus norvegicus [1]; M, Hematology_Reticulocytes) | LOEL (Rattus norvegicus [1]; M, Nonneoplastic effects_Liver - Hepatocyte, cytoplasmic alteration) | LOEL (Rattus norvegicus [1]; M, Nonneoplastic effects_Liver - Hepatocyte, hypertrophy) | LOEL (Rattus norvegicus [1]; M, Organ weights_Liver - Absolute) | LOEL (Rattus norvegicus [1]; M, Organ weights_Liver - Relative) | LOEL (Rattus norvegicus [1]; M, Organ weights_R. adrenal gland - Absolute) | LOEL (Rattus norvegicus [1]; M, Organ weights_R. kidney - Relative)
0.2 mg/kg-day: NOAEL (Rattus norvegicus [2]; [5])
67 mg/m3: NOAEL (Rattus norvegicus [2]; acute, duration: 4 hours, inhalation, nose only, M, CD, Body Weight: Reduced 18% 5 days after exposure + Hepatic: 28% increase in absolute liver weight 5 days after exposure to ?67 mg/m3 + …)
25 mg/kg-day: NOEL (Rattus norvegicus [1]; F, Clinical chemistry_Aspartate aminotransferase) | NOEL (Rattus norvegicus [1]; F, Clinical chemistry_Cholesterol) | NOEL (Rattus norvegicus [1]; F, Clinical chemistry_Creatinine kinase) | NOEL (Rattus norvegicus [1]; F, Clinical chemistry_Indirect bilirubin) | NOEL (Rattus norvegicus [1]; F, Clinical chemistry_Thyroid stimulating hormone) | NOEL (Rattus norvegicus [1]; F, Clinical chemistry_Total bilirubin) | NOEL (Rattus norvegicus [1]; F, Clinical chemistry_Total triiodothyronine) | NOEL (Rattus norvegicus [1]; F, Clinical chemistry_Triglycerides) | NOEL (Rattus norvegicus [1]; F, Hematology_Erythrocytes) | NOEL (Rattus norvegicus [1]; F, Hematology_Hematocrit) | NOEL (Rattus norvegicus [1]; F, Hematology_Hemoglobin) | NOEL (Rattus norvegicus [1]; F, Hematology_Mean corpuscular hemoglobin concentration) | NOEL (Rattus norvegicus [1]; F, Hematology_Mean corpuscular volume) | NOEL (Rattus norvegicus [1]; F, Hematology_Platelets) | NOEL (Rattus norvegicus [1]; F, Hematology_Reticulocytes) | NOEL (Rattus norvegicus [1]; F, Nonneoplastic effects_Kidney - Nephropathy, chronic progressive) | NOEL (Rattus norvegicus [1]; F, Nonneoplastic effects_Liver - Hepatocyte, vacuolization cytoplasmic) | LOEL (Rattus norvegicus [1]; F, Nonneoplastic effects_Nose - Olfactory epithelium, degeneration) | NOEL (Rattus norvegicus [1]; F, Nonneoplastic effects_Nose - Olfactory epithelium, hyperplasia) | NOEL (Rattus norvegicus [1]; F, Nonneoplastic effects_Nose - Olfactory epithelium, inflammation, suppurative) | NOEL (Rattus norvegicus [1]; F, Nonneoplastic effects_Nose - Respiratory epithelium, hyperplasia) | NOEL (Rattus norvegicus [1]; F, Nonneoplastic effects_Nose - Respiratory epithelium, inflammation, chronic active) | NOEL (Rattus norvegicus [1]; F, Nonneoplastic effects_Spleen - Extramedullary hematopoiesis, increased) | NOEL (Rattus norvegicus [1]; F, Nonneoplastic effects_Thymus - Lymphocyte, apoptosis) | NOEL (Rattus norvegicus [1]; F, Nonneoplastic effects_Thyroid gland - Follicular cell hypertrophy) | NOEL (Rattus norvegicus [1]; F, Organ weights_R. adrenal gland - Absolute) | NOEL (Rattus norvegicus [1]; F, Organ weights_R. adrenal gland - Relative) | NOEL (Rattus norvegicus [1]; F, Organ weights_Thymus - Absolute) | NOEL (Rattus norvegicus [1]; F, Organ weights_Thymus - Relative) | NOEL (Rattus norvegicus [1]; F, Organ weights_Thyroid gland - Absolute) | NOEL (Rattus norvegicus [1]; F, Organ weights_Thyroid gland - Relative)
1 mg/kg-day: NOAEL (Rattus norvegicus [2]; [3]) | LOAEL (Rattus norvegicus [2]; short-term, duration: 14 days, oral, gavage, M, Sprague-Dawley, Immunotoxicological: 24% increase in relative thymus weight at 1 mg/kg/day / 20% decrease in thymus weight at 3 or 5 mg/kg/day, increases …) | LOAEL (Rattus norvegicus [2]; [5])
12.5 mg/kg-day: LOEL (Rattus norvegicus [1]; F, Nonneoplastic effects_Bone marrow - Hypocellularity) | LOEL (Rattus norvegicus [1]; F, Nonneoplastic effects_Forestomach - Epithelium, hyperplasia) | LOEL (Rattus norvegicus [1]; F, Nonneoplastic effects_Liver - Hepatocyte, Necrosis) | LOEL (Rattus norvegicus [1]; F, Nonneoplastic effects_Lymph nodes - Mandibular, atrophy) | LOEL (Rattus norvegicus [1]; F, Nonneoplastic effects_Lymph nodes - Mesenteric, atrophy) | LOEL (Rattus norvegicus [1]; F, Nonneoplastic effects_Spleen - Atrophy) | LOEL (Rattus norvegicus [1]; F, Nonneoplastic effects_Thymus - Atrophy)
3 mg/kg-day: LOAEL (Rattus norvegicus [2]; [3]) | NOAEL (Rattus norvegicus [2]; [4]) | NOAEL (Rattus norvegicus [2]; [6]) | NOAEL (Rattus norvegicus [2]; [7])
1.25 mg/kg-day: LOEL (Rattus norvegicus [1]; M, Clinical chemistry_Alanine aminotransferase) | LOEL (Rattus norvegicus [1]; M, Clinical chemistry_Albumin) | LOEL (Rattus norvegicus [1]; M, Clinical chemistry_Alkaline phosphatase) | LOEL (Rattus norvegicus [1]; M, Clinical chemistry_Aspartate aminotransferase) | LOEL (Rattus norvegicus [1]; M, Clinical chemistry_Direct bilirubin) | LOEL (Rattus norvegicus [1]; M, Clinical chemistry_Indirect bilirubin) | LOEL (Rattus norvegicus [1]; M, Clinical chemistry_Sorbitol dehydrogenase) | LOEL (Rattus norvegicus [1]; M, Clinical chemistry_Total bilirubin) | LOEL (Rattus norvegicus [1]; M, Nonneoplastic effects_Liver - Hepatocyte, vacuolization cytoplasmic) | LOEL (Rattus norvegicus [1]; M, Organ weights_Spleen - Absolute) | LOEL (Rattus norvegicus [1]; M, Organ weights_Spleen - Relative) | LOEL (Rattus norvegicus [1]; M, Organ weights_Thymus - Absolute) | LOEL (Rattus norvegicus [1]; M, Organ weights_Thymus - Relative) | LOEL (Rattus norvegicus [1]; M, Reproductive toxicity_Altered sperm parameters) | LOEL (Rattus norvegicus [1]; M, body weight)
820 mg/m3: LOAEL (Rattus norvegicus [2]; acute, duration: 4 hours, inhalation, nose only, M, CD, Death: 14-day LC50)
6.25 mg/kg-day: LOEL (Rattus norvegicus [1]; F, Clinical chemistry_Direct bilirubin) | LOEL (Rattus norvegicus [1]; F, Nonneoplastic effects_Liver - Hepatocyte, hypertrophy) | LOEL (Rattus norvegicus [1]; F, Organ weights_Spleen - Relative) | LOEL (Rattus norvegicus [1]; F, body weight)
5 mg/kg-day: LOEL (Rattus norvegicus [1]; M, Nonneoplastic effects_Epididymis - Epithelium, apoptosis) | LOEL (Rattus norvegicus [1]; M, Nonneoplastic effects_Epididymis - Hypospermia) | LOEL (Rattus norvegicus [1]; M, Nonneoplastic effects_Lymph nodes - Mandibular, atrophy) | LOEL (Rattus norvegicus [1]; M, Nonneoplastic effects_Lymph nodes - Mesenteric, atrophy) | LOEL (Rattus norvegicus [1]; M, Nonneoplastic effects_Spleen - Atrophy) | LOAEL (Rattus norvegicus [2]; developmental, duration: 20 days, oral, gavage, M/F, Sprague-Dawley, Body Weight: Reduced maternal body weight / approximately 33% on GD 7 and 10% on GD 20 + Developmental: Decreased birth weight in female …) | NOAEL (Rattus norvegicus [2]; short-term, duration: 14 days, oral, gavage, M, Sprague-Dawley, Hepatic: Decreased HDL levels at ?1 mg/kg/day) | NOAEL (Rattus norvegicus [2]; short-term, duration: 14 days, oral, gavage, M, Sprague-Dawley, Hepatic: Hepatocellular vacuolation and lipid accumulation at 5 mg/kg/day) | LOAEL (Rattus norvegicus [2]; [4]) | LOAEL (Rattus norvegicus [2]; [6]) | LOAEL (Rattus norvegicus [2]; [7]) | LOAEL (Rattus norvegicus [2]; short-term, duration: 14 days, oral, gavage, Wistar, Body Weight: Decreased body weight / magnitude of effect was not reported + Endocrine: Decreased androstenedione and testosterone …)
